Laboratory results reported in patent publication US10954221B2, “GLP-1R agonists and uses thereof” (QILU REGOR THERAPEUTICS INC., priority 2019, dated 2021).

Assays:
[1] = target: T1, GLP1R (Homo sapiens, UniProt P43220); set-up: Emax: dose or concentration left out as unconfirmed; details: CHO-K1, […], read-out: β-arrestin recruitment Bmax (%)
Target sequence in this assay (P43220 24-463): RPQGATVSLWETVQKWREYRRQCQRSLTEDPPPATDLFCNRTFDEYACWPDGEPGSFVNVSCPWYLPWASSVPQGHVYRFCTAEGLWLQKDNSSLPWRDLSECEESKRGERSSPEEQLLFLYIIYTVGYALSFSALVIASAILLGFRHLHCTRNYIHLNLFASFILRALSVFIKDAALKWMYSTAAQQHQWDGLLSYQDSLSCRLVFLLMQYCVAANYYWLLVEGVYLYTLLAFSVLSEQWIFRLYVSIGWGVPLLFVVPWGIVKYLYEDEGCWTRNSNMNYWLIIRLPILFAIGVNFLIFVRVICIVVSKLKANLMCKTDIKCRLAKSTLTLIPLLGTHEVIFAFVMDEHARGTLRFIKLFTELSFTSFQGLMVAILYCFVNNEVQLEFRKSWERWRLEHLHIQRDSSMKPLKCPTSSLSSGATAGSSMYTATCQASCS
Target sequence in this assay (P32121 whole entry partner): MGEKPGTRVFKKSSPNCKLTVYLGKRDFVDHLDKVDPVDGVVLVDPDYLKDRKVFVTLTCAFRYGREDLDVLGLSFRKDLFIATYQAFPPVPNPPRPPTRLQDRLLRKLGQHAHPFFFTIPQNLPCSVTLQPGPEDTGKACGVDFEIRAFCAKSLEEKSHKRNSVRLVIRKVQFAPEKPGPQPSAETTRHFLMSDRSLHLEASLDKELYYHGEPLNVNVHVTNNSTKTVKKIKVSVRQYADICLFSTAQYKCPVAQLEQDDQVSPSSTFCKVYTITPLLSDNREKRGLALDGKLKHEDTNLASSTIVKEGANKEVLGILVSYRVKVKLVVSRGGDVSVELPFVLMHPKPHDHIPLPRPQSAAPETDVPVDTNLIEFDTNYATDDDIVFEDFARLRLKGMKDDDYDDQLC
Method: Frozen cells were quickly thawed and 10 mL of cell plating medium (provided by the kit) was added to thawed cells. Cells were stored in a 37° C. incubator under 5% CO2 and kept for approximately 48 hours until ready to run the assay.
Reference and test compounds were dissolved in 100% DMSO. […] 5 μL of this solution was added to 20 μL cell medium in assay plate for a final top concentration of 10 μM. Plates were then incubated at 37° C. under 5% CO2 for 90 min.
Following 90 min incubation, detection reagents were made up by combining 1 part Galacton Star Substrate with 5 parts Emerald II™ Solution, and 19 parts of PathHunter Cell Assay Buffer, respectively. 12.5 μl detection reagent was added to each well. The plates were then incubated at room temperature in dark for 60 min. Plates were then read on Envision for 0.1 sec/well.
Cells were plated at a density of 1000 or 2000 cells/20 μL/well. Frozen cells were quickly thawed and added to 10 mL of cell plating medium. Cells were stored in a 37 degree incubator under 5% CO2 and left for approximately 48 hours until ready to run the assay
Prepare 10× concentration of an agonist in serum free DMEM, and add all solutions into the compound plate. 2.5 μL of this solution was added to 20 μL cell medium in assay plate for a final top concentration of 10 μM. Plates were incubated at 37° C. under 5% CO2 for 30 min. An additional 2.5 μL of Buffer was added to the entire plate for agonist mode and incubated at 37° C. for another 90 min.
Following 90 min incubation, detection reagents were made up as described. 12.5 μL was added to all wells. The plates were then incubated at room temperature in dark for 60 min. Plates were then read on Envision for 0.1 sec/well.
Data analysis: GraphPad Prism 6 was used for establishment of progression curve. EC50s or IC50s were determined by 4-parameter logistic dose response equation.

[2] = target: T1, GLP1R; experiment: β-Arrestin-mediated GLP1R internalization assay (PathHunter U2OS cells); type: cell-based; set-up: host or cells: PathHunter engineered U2OS cells; details: averaged Bmax where applicable, Percentage of Control GLP-1 (7-37), top 10 μM, 180 min
In short: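 PathHunter U2OS cells co-express untagged GLP1R, EA-tagged β-arrestin and an endosome-localized PK tag, so internalization gives β-galactosidase complementation. Agonist (top final concentration 10 μM) applied for 180 min at 37 °C, then chemiluminescence read after 60 min detection. EC50 from 4-parameter logistic fits.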
Target sequence in this assay (P43220 24-463): as the sequence (P43220 24-463) above
Target sequence in this assay (P32121 whole entry partner): as the sequence (P32121 whole entry partner) above

[3] = target: T1, GLP1R; experiment: cAMP assay in CHO cells stably expressing hGLP-1R; type: cell-based; set-up: expressed in transfected cells; host or cells: CHO cells stably transfected; details: CHO cells stably expressing hGLP-1R (Table 2), read-out: CHO cAMP stable EC50
Method: GLP-1R-mediated agonist activity was determined with a cell-based functional assay utilizing an HTRF (Homogeneous Time-Resolved Fluorescence) cAMP detection kit (cAMP Dynamic 2 Assay Kit; CisBio cat #62AM4PEC) that measures cAMP levels in the cell. The method is a competitive immunoassay between native cAMP produced by the cells and exogenous cAMP labeled with the dye d2. The tracer binding is visualized by a mAb anti-cAMP labeled with Cryptate. The specific signal (i.e., energy transfer) is inversely proportional to the concentration of cAMP in either standard or experimental sample.
Following the 30 minute incubation, 5 μL of labeled d2 cAMP and 5 μL of anti-cAMP antibody (both diluted 1:20 in cell lysis buffer; as described in the manufacturer's assay protocol) were added to each well of the assay plate. […] Raw data were converted to nM cAMP by interpolation from a cAMP standard curve (as described in the manufacturer's assay protocol) and the percent effect was determined relative to a saturating concentration of the full agonist GLP-17-37 (10 nM) included on each plate. EC50 determinations were made from agonist dose-response curves analyzed with a curve fitting program using a 4-parameter logistic dose response equation. […]
Target sequence in this assay (P43220 24-463): as the sequence (P43220 24-463) above

[4] = target: T1, GLP1R; experiment: GLP1R cAMP assay (HTRF), HEK293/GLP-1R/CRE/Luc, Clone 4
Target sequence in this assay (P43220 24-463): as above
Method: The human GLP-1R coding sequence (NCBI Reference Sequence NM_002062) was subcloned into pcDNA3.1+/Hygro vector (Invitrogen) and transfected into HEK293/CRE/Luc parental cell line. A cell line stably expressing the receptor was isolated.
Varying concentrations of each compound to be tested (in DMSO) were diluted in DMSO to obtain 200× compound working solution first and then 50 nl compounds were added to a white 384-well assay plate (Greiner 784075) with ECHO. The final DMSO concentration was 0.5%.
Cells were removed from cryopreservation, re-suspended in 5 mL of Dulbecco's Phosphate Buffered Saline (DPBS-Sigma Cat #D8537) and centrifuged at 900×g for 5 min at 22° C. The cell pellet was then re-suspended in 1 mL of assay buffer [DPBS with 500 μM IBMX (Sigma #15879) and 0.1% BSA (Sigma #A1933). IBMX and BSA were freshly added on the day of assay]. A 10 μL sample of the cell suspension was counted on an Invitrogen Countess II to determine cell viability and cell count per mL. The remaining cell suspension was then adjusted with assay buffer to deliver 1000 viable cells per well using a Matrix Combi Multidrop reagent dispenser. 10 μL cell suspensions were added to each well
of the assay plate which already contains compound. The plate was sealed and incubated at 37° C. with 5% CO2 for 30 minutes.
Following the 30 minute incubation, 5 μL of labeled d2 cAMP and 5 μL of anti-cAMP antibody (both diluted 1:20 in cell lysis buffer; as described in the manufacturer's assay protocol) were added to each well of the assay plate. The plates were then incubated at room temperature and after 60 minutes, changes in the HTRF signal were read with an Envision multi-label plate reader using excitation of 330 nm and emissions of 615 and 665 nm. Raw data were converted to nM cAMP by interpolation from a cAMP standard curve (as described in the manufacturer's assay protocol) and the percent effect was determined relative to a saturating concentration of the full agonist GLP-17-37 (10 nM) included on each plate. EC50 determinations were made from agonist dose-response curves analyzed with a curve fitting program using a 4-parameter logistic dose response equation.

SMILES | Emax [1] [%] | β-arrestin internalization Bmax (POC) [2] [POC] | EC50 [3] [nM] | EC50 [4] [nM]
N#Cc1ccc(COc2cccc(-c3cc(F)c(Cc4nc5ccc(C(=O)O)nc5n4C[C@@H]4CCO4)cc3F)n2)c(F)c1 [Compound 292, (S)-2-(4-(6-((4-cyano-2-fluorobenzyl)oxy)pyridin-2-yl)-2,5-difluorobenzyl)-3-(oxetan-2-ylmethyl)-3H-imidazo[4,5-b]pyridine-5-carboxylic acid] | 42.2 ± 2.68 | 29.6 | < 15 | < 15
O=C(O)c1ccc2nc(Cc3cc(F)c(-c4cccc(OCc5ccc(-n6ccnc6)cc5)n4)cc3F)n(C[C@@H]3CCO3)c2n1 [Compound 303, (S)-2-(4-(6-(4-(1H-imidazol-1-yl)benzyloxy)pyridin-2-yl)-2,5-difluorobenzyl)-3-(oxetan-2-ylmethyl)-3H-imidazo[4,5-b]pyridine-5-carboxylic acid] | 39.2 ± 4.75 | 28.4 | < 15 | < 15
O=C(O)c1ccc2nc(Cc3ccc(-c4nccc(OCc5ccc(Cl)cc5F)n4)cc3F)n(C[C@@H]3CCO3)c2c1F [Compound 311, (S)-2-(4-(4-((4-chloro-2-fluorobenzyl)oxy)pyrimidin-2-yl)-2-fluorobenzyl)-7-fluoro-1-(oxetan-2-ylmethyl)-1H-benzo[d]imidazole-6-carboxylic acid] | 38.8 ± 7.09 | 26.7 ± 4.53 | < 15 | < 15
N#Cc1ccc(COc2nc(-c3ccc(Cc4nc5ccc(C(=O)O)c(F)c5n4C[C@@H]4CCO4)c(F)c3)ncc2F)c(F)c1 [Compound 312, (S)-2-(4-(4-((4-cyano-2-fluorobenzyl)oxy)-5-fluoropyrimidin-2-yl)-2-fluorobenzyl)-7-fluoro-1-(oxetan-2-ylmethyl)-1H-benzo[d]imidazole-6-carboxylic acid] | 33.4 ± 2.13 | 45.2 | < 15 | < 15
